Where “and” joins values, the source holds several entries; their conditions need not be identical. Identical values can stand only once.
Experiments:
[1] = cited from earlier work
[2] = Stability at 50° C., potency by HPLC (% EP remaining); format: physicochemical; details: for % EP remaining, 2 wk / % EP remaining, 4 wk / % EP remaining, 8 wk: sealed glass vials, control: desiccated at 4° C. (100% assumed potency); for % EP remaining, 2 wk: 20160 min; for % EP remaining, 4 wk: 40320 min; for % EP remaining, 8 wk: 80640 min
Experimental: a. Crystalline etoposide 4'-phosphate diethanolate prepared as described above. b. Crystalline etoposide 4'-phosphate (unsolvated) was prepared by the following procedure. Etoposide 4'-phosphate (300 mg) in ethanol (175 ml) was heated with stirring at 70° C. to obtain a clear solution. The solution was filtered and the filtrate heated at 70° C. until the volume was reduced to ca. 34 ml. A portion of the solution (ca. 17 ml) was placed in a vial, and seeded with a small amount of needle-shaped etoposide 4'-phosphate crystals previously obtained. The solution was placed in freezer at -12° C. for 4 days and the resulting needle-shaped crystals were harvested as white fluffy material. NMR analysis of this material indicated ethanol content of ca. 1.6% w/w. […]
c. amorphous disodium etoposide 4'-phosphate prepared as described in U.S. Pat. No. 4,904,768. d. amorphous etoposide 4'-phosphate was obtained by dissolving crystalline etoposide 4'-phosphate diethanolate (125 mg) in methanol (50 ml), evaporating the solution to dryness on a rotary evaporator, and drying the residue at 25° C. under vacuum for 1 hour.
Accurately weighed samples of the test materials were placed in Type I flint glass vials and sealed with Teflon-coated stoppers and aluminum caps. The vials were stored at 50° C. The potency of these samples was determined at 2,4 and 8 weeks by HPLC. Samples stored desiccated at 4° C. served as controls (100% assumed potency).
Column: Jones Apex Octadecyl, 5μ, 150×4.6 mm
Mobile phase A: 0.02M ammonium phosphate (mono-basic) in Milli-Q water (pH ~4.5): Acetonitrile (85:15) Mobile phase B: Acetonitrile
Gradient: 0-3 minutes isocratic at 0% B; 3-18 mins--linear gradient 0 to 30% B; 18-23 mins--isocratic at 30% B; 23-25 mins--linear gradient 30 to 0% B; 25-30 mins--re-equilibrate at 100% A (i.e. 0% B) […]
Sample diluent: Mobile phase A
Inj. volume: 20 microliters
Retention times: Etoposide 4'-phosphate--5.4 mins; lignan P--11.5 mins; etoposide--17.5 mins Peak area for etoposide 4'-phosphate was linearly correlated with concentration in the range 0.05-0.20 mg/mL (correlation coefficient=0.9999).
The results of the above-described stability test are given in the following Table in which the term "EP" represents etoposide 4'-phosphate.

[3] = relative to etoposide; cited from earlier work
[4] = previously disclosed fluffy, amorphous forms; cited from earlier work

Compound | water solubility [1] | stability versus other forms of etoposide 4'-phosphate [2] | % EP remaining, 2 wk [2] [%] | % EP remaining, 4 wk [2] | loss of potency over a 8-week period ([2]; 8-week period) | % EP remaining, 8 wk [2] | activity in in vivo antitumor assays [3] | decomposition upon storage [4]
COc1cc([C@@H]2c3cc4c(cc3[C@@H](O[C@@H]3O[C@@H]5CO[C@@H](C)O[C@H]5[C@H](O)[C@H]3O)[C@H]3COC(=O)[C@H]23)OCO4)cc(OC)c1O [Etoposide] | about 0.1 mg/ml |  |  |  |  |  |  | 
COc1cc([C@@H]2c3cc4c(cc3[C@@H](O[C@@H]3O[C@@H]5CO[C@@H](C)O[C@H]5[C@H](O)[C@H]3O)[C@H]3COC(=O)[C@H]23)OCO4)cc(OC)c1OP(=O)(O)O [Crystalline EP 2EtOH, etoposide 4'-phosphate diethanolate] |  | superior stability | 100 | 98.4% and 100% | very little loss of potency | 97.5% and 99.3% |  | 
COc1cc([C@@H]2c3cc4c(cc3[C@@H](O[C@@H]3O[C@@H]5CO[C@@H](C)O[C@H]5[C@H](O)[C@H]3O)[C@H]3COC(=O)[C@H]23)OCO4)cc(OC)c1OP(=O)(O)O [Amorphous EP 2Na, disodium etoposide 4'-phosphate] | ≥ 100 mg/mL |  | 85.5 | 69.3% |  | 61.6% |  | 
COc1cc([C@@H]2c3cc4c(cc3[C@@H](O[C@@H]3O[C@@H]5CO[C@@H](C)O[C@H]5[C@H](O)[C@H]3O)[C@H]3COC(=O)[C@H]23)OCO4)cc(OC)c1OP(=O)(O)O [Crystalline EP, etoposide 4'-phosphate] |  |  | 93.3 | 87.9% |  | 85.1% |  | 
COc1cc([C@@H]2c3cc4c(cc3[C@@H](O[C@@H]3O[C@@H]5CO[C@@H](C)O[C@H]5[C@H](O)[C@H]3O)[C@H]3COC(=O)[C@H]23)OCO4)cc(OC)c1OP(=O)(O)O [Etoposide 4'-phosphate (I), Etoposide 4'-phosphate] | ≥ 100 mg/mL |  |  |  |  |  | as active as etoposide | tend to decompose upon storage
COc1cc([C@@H]2c3cc4c(cc3[C@@H](O[C@@H]3O[C@@H]5CO[C@@H](C)O[C@H]5[C@H](O)[C@H]3O)[C@H]3COC(=O)[C@H]23)OCO4)cc(OC)c1OP(=O)(O)O [Amorphous EP, etoposide 4'-phosphate] |  |  | 65.8 | 54.1% |  | 46.7% |  | 

Source: US5648474A, “Crystalline etoposide 4'-phosphate diethanolate” (Bristol-Myers Squibb, priority 1991, dated 1997)
